Experimental data taken from patent US20170071208A1, “COMPOSITIONS FOR MOSQUITO CONTROL AND USES OF SAME” (Forrest Innovations Ltd., priority 2014, published 2017).

Experiments:
Type in all cases: in vivo, Aedes aegypti
[1] = tested on: Ae. aegypti mosquitoes (RJ strain); assay: dsRNA treatment of larvae (soaking, or soaking plus feeding), then pyrethroid adulticide bottle bioassay of adult females
Description: (§1) Third instar larvae were treated (in groups of 100 larvae) in a final volume of 3 mL of dsRNA solution in autoclaved water (0.5 μg/μL for sodium channel (AAEL008297), PgP (AAEL010379) and Ago3 (AAEL007823) dsRNA, or 0.1 μg/μL for CYP9J26 (JF924909.1). The control group was kept in 3 ml sterile water only. Larvae were soaked in the dsRNA solutions for 24 hr at 27° C., and then transferred into new containers (300 larvae/1500 mL of chlorine-free tap water), which were also maintained at 27° C., and were provided 6 mg/100 mL lab dog/cat diet (Purina Mills) suspended in water as a source of food on a daily basis. As pupae developed, they were transferred to individual vials to await eclosion and sex sorting. For bioassays purpose only females up to five days old were used. See Flowchart 1, FIG. 1 for detailed explanation of this experiment.
After soaking in the dsRNA solutions for 24 hr at 27° C., the larvae were transferred into new containers (300 larvae/1500 mL of chlorine-free tap water), and were provided agarose cubes containing 300 μg of dsRNA once a day for a total of four days. The larvae were reared until adult stage. For bioassays purpose only females up to five days old are used. See Flowchart 2, FIG. 2 for detailed explanation of this experiment.
Bottles were prepared following the Brogdon and McAllister (1998) protocol [Brogdon and McAllister (1998) Emerg Infect Dis 4:605-613]. Fifteen-twenty non-blood-fed females from each site were introduced in 250 mL glass bottles impregnated with different concentrations of deltamethrin (Sigma-Aldrich) in 1 ml acetone. Each test consisted of four impregnated bottles and one control bottle. The control bottle contained acetone with no insecticide. At least three tests were conducted for each insecticide and population. Immediately prior to use, all insecticide solutions were prepared fresh from stock solutions. At 15, 30 and 45 min intervals, the number of live and dead mosquitoes in each bottle was recorded. The mortality criteria included mosquitoes with difficulties flying or standing on the bottle's surface. Mosquitoes that survived the appropriate dose for insecticide were considered to be resistant [Brogdon and McAllister (1998), supra].
Cubes of dsRNA-containing mosquito food were prepared as follows: First, 300 μg of dsRNA were mixed with 30 μg of Polyethylenimine 25 kD linear (Polysciences) in 200 μL of sterile water. Then, a suspension of ground mosquito larval food (6 grams/100 mL) was prepared with 2% agarose (Fisher Scientific). The food/agarose mixture was heated to 55° C. and 200 μL of the mixture was then transferred to the tubes containing 200 μL of dsRNA+PEI or water only (control). The mixture was then allowed to solidify into a gel. The solidified gel containing both the food and dsRNA was cut into small pieces (approximately 1 mm thick) using a razor blade, which were then used to feed mosquito larvae in water.

[2] = tested on: sodium channel (AAEL008297) mRNA; assay: qPCR analysis of sodium channel mRNA expression after dsRNA treatment
Description: as §1
Total RNA was extracted from groups of five Ae. aegypti fourth instar larvae and early adult male/female Ae. aegypti, using TRIzol (Invitrogen, Carlsbad, Calif., USA) according to the manufacturer's instructions. RNA was treated with amplification grade DNase I (Invitrogen) and 1 μg was used to synthesize cDNA using a First Strand cDNA Synthesis kit (Invitrogen). PCR products were purified using a QIAquick PCR purification kit (Qiagen). The MEGAscript RNAi kit (Ambion) was then used for in vitro transcription and purification of dsRNAs. See Flowchart 4, FIG. 4 for detailed explanation production off dsRNA.
(§2) Approximately 1000 ng first-strand cDNA obtained as described previously was used as template. The qPCR reactions were performed using SYBR® Green PCR Master Mix (Applied Biosystems) following the manufacturer's instructions. […] Raw quantification cycle (Cq) values normalized against those of the tubulin and S7 standards were then used to calculate the relative expression levels in samples using the 2^−ΔΔct method [Livak & Schmittgen, (2001) Methods. […]

[3] = tested on: P-glycoprotein (AAEL010379) mRNA; assay: qPCR analysis of P-glycoprotein mRNA expression after dsRNA treatment; details: vs water
Description: as §1
Total RNA was extracted from groups of five Ae. aegypti fourth instar larvae and early adult male/female Ae. aegypti, using TRIzol (Invitrogen, Carlsbad, Calif., USA) according to the manufacturer's instructions. […]
as §2, with “template.” for “template. The qPCR reactions were performed using SYBR® Green PCR Master Mix (Applied Biosystems) following the manufacturer's instructions.”

[4] = tested on: Ae. aegypti Rockefeller strain; assay: Oviposition assay after larval dsRNA soaking plus feeding; details: larvae soaked 24 h in 0.5 μg/μL dsRNA, fed twice with agarose plug containing dsRNA; 15 engorged females per cage; vs water control
Description: FIG. 12 is a flowchart illustration depicting introduction of dsRNA into mosquito larvae via soaking with different doses of “naked” dsRNA plus additional larvae feeding with food-containing dsRNA. Step a) 100 larvae from A. aegypti Rockefeller strain (3rd instar) were soaked for 24 hours with the respective dsRNAs (concentration range from 0.02-0.5 μg/μL) or only in water and were then fed 2 times with food plus agarose 2% containing dsRNA until they reach adult stage (Step b). Step c) The adults arising were allowed to copulate for 3-5 days. Step d) mosquitoes were fed with defibrinated sheep blood. Step e) after blood feeding 15 fully-engorged females were transferred into 3 small cages to be assayed for oviposition. Step f) the total number of laid eggs and the percentage of hatched eggs were counted. FIGS. 13A-B are graphs illustrating larvae from Ae. aegypti Rockefeller strain (3rd instar) soaked for 24 hours in 0.5 μg/μL of Aubergine (Aub) or Argonaute-3 (Ago) dsRNAs or water only. […] (FIG. 13A) The total number of laid eggs and the percentage of hatched eggs were counted (FIG. 13B). […]
(§3) Five days after the blood meal, an ovipositon cup was place inside each cage containing 15 females to allow the females to lay their eggs. […] The number of eggs laid was counted and used to check the viability and egg hatching rate.

[5] = tested on: Ae. aegypti Rockefeller strain; assay: Egg hatching rate after larval dsRNA soaking plus feeding; details: larvae soaked 24 h in 0.5 μg/μL dsRNA, fed twice with agarose plug containing dsRNA; vs water control
Description: FIG. 12 is a flowchart illustration depicting introduction of dsRNA into mosquito larvae via soaking with different doses of “naked” dsRNA plus additional larvae feeding with food-containing dsRNA. Step a) 100 larvae from A. aegypti Rockefeller strain (3rd instar) were soaked for 24 hours with the respective dsRNAs (concentration range from 0.02-0.5 μg/μL) or only in water and were then fed 2 times with food plus agarose 2% containing dsRNA until they reach adult stage (Step b). Step c) The adults arising were allowed to copulate for 3-5 days. Step d) mosquitoes were fed with defibrinated sheep blood. Step e) after blood feeding 15 fully-engorged females were transferred into 3 small cages to be assayed for oviposition. Step f) the total number of laid eggs and the percentage of hatched eggs were counted. […] (FIG. 13A) The total number of laid eggs and the percentage of hatched eggs were counted (FIG. 13B). […]
as §3
To check the viability of the eggs the oviposition paper were kept to dry and embrionate for a period minimum of 5 days. […] The hatching rate (HR) for each treatment were calculated as follow: HR=total number of hatched larvae/total number of eggs oviposited). […]

## sodium channel dsRNA: dsRNA targeting Ae. aegypti sodium channel (AAEL008297), SEQ ID NO: 1825
[1]; 3rd instar larvae soaked 24 h in 0.5 μg/μL naked dsRNA vs water, adult females exposed to deltamethrin 0.5 μg/bottle
  susceptibility of adult mosquitoes to deltamethrin (mortality rate): increased susceptibility
[1]; 3rd instar larvae soaked 24 h in 0.5 μg/μL naked dsRNA vs water, adult females exposed to deltamethrin 0.5 μg/bottle, listed as dsRNA against sodium channel
  susceptibility of adult mosquitoes to deltamethrin (mortality rate): increased substantially the susceptibility
[1]; larvae soaked 24 h in 0.5 μg/μL dsRNA, then fed 4 times with food-containing dsRNA, adult females, deltamethrin 0.5 μg/bottle
  susceptibility of adult mosquitoes to deltamethrin (mortality rate): increased susceptibility
[1]; larvae soaked 24 h in 0.5 μg/μL dsRNA, then fed 4 times with food-containing dsRNA, adult females, deltamethrin 0.5 μg/bottle, listed as dsRNA against sodium channel
  susceptibility of adult mosquitoes to deltamethrin (mortality rate): increased the susceptibility
[2]; adult female mosquitoes soaked as larvae, collected before deltamethrin treatment, vs water
  sodium channel mRNA expression level: decreased expression
[2]; dead female mosquitoes collected after exposure to deltamethrin, compared to water-treated mosquitoes
  sodium channel mRNA expression level: striking decrease
[2]; larvae soaked 24 h in dsRNA, 24 and 48 hours after the end of dsRNA treatment, vs water
  sodium channel mRNA levels: decreased mRNA levels

B1: Cytochrome p450 (CYP9J26): dsRNA targeting Cytochrome p450 (CYP9J26, JF924909.1), SEQ ID NO: 1824 (nucleic acid)
chain: CTTCAACGACTTCGTCCGATCAATTTACAACAAATATCCTGGAGTGAAGGTTTTCGGAATGTTCGAGACGATCACGCCGTTCTTCGTGATTCGCGATCCGGAGTTGATCAAGCAGATCGGCATCAAGGATTTCGATCACTTCGTTGACCACCGTCCGACGTTCGGACTGGACGATGAAACGGCGGAGCATCCGAAGGCGCTGTTCCGCAAGACGCTGTTCTCGATGACCGGTCAACGGTGGAAGGAGATGCGCGCTACGCTGAGTCCGGCTTTTACCGGCAGTAAGATGCGACAGATGTTCTCGCTGATGAGCGAATGCTGCGACGAAATGATGAAGCACTACCTGGACAAGGCGAAGGGCACGGGAAGGGTGGAAGTCGAAATGAAGGACTTGCTGAGTCGAATCACTATCAATGTGATTGCGTCGTGTGCTTTTGGAATCAAGGTGGAC
modifications: double stranded RNA
[1]; larvae soaked 24 h in 0.1 μg/μL dsRNA, then fed 4 times with food-containing dsRNA, adult females, deltamethrin 0.5 μg/bottle, first 15 minutes of contact
  susceptibility of adult mosquitoes to deltamethrin (mortality rate): more sensitive
[1]; larvae soaked 24 h in 0.1 μg/μL dsRNA, then fed 4 times with food-containing dsRNA, adult females, deltamethrin 0.5 μg/bottle, first 15 minutes of contact, listed as CYP9J29 dsRNA
  susceptibility of adult mosquitoes to deltamethrin (mortality rate): affects the susceptibility

B2: PgP: dsRNA targeting P-glycoprotein (AAEL010379), SEQ ID NO: 1822 (nucleic acid)
chain: TGGAAAAGTTGACATTGACGGGATCACGACAACTGATTTCCAGCTTGGCCGCATACGTTCACAAATGGGTCTCGTATCGCAAGAACCTGTTCTGTTTGATCGCACCATCGCGGAAAATATTGCTTATGGTGACAACACTCGCGAGATAAGCATGCCGGAGATAATCGAGGCATCCAAAATGGCAAACATTCACGAATTCATCGTCAATCTACCGAAGGGGTATGACACTAGCCTAGGAACCAAAGGAGCTCAATTGTCTGGTGGCCAAAAGCAACGTATTGCTATAGCTCGTGCTTTGGTTAGAAATCCACGAATCC
modifications: double stranded RNA
[3]; adult mosquitoes soaked with dsRNA as larvae
  PgP mRNA expression: reached normal levels
[3]; larvae soaked 24 h in dsRNA, 24 and 48 hours after the end of dsRNA treatment
  PgP mRNA levels: decreased mRNA levels

B3: Aub: dsRNA targeting PIWI protein Aub (AAEL007698), SEQ ID NO: 1858 (nucleic acid)
chain: TCTTCTCCACCACAGCCAATGGCGTACAGGCTGGAGAACAGGCAGATTGGACGGCCCATTTCCGTAACAATCCCATGTTCGCTACGGTGCGGTTGACGCGATGGTATTTGATCGTACCGAACCGGGCTTCACGTGAGGCCAACGATTTCCTGGGCTGCATGATTCAAGCCGCACGCGGTATGCGATTTGAGATTAGTAACTGTGAGGTGGTCACCATTCCGGACGACAACCCAGGTACCTATGTGCGAACATTGGACAATCTGCTGAATAAGGACCCGCAGTTGGTGATGTGCGTCGTGACCAACAATAAGGCCGATCGGTACACCGCCATCAAGAAGAAATGTTGCGTTGATCGTGCCATCCCAACGCAAGTCATGGTACAAAAAACGATCACACCAAAGGGTGGTAATGTACGAACACTCATGTCCGTG
modifications: double stranded RNA
[4]
  oviposition rate (total number of laid eggs): no difference
[5]
  number of hatched eggs (hatchability): 50%
